According to patent US5629011A, “Composition for nasal administration” (priority 1992, dated 1997):
Where “and” joins values, the source holds several entries; their conditions need not be identical. Equal entries are not always repeated.

How the values were obtained:
[1] = cited from earlier work; for unwanted side effects: metabolites compared with morphine, for morphine: therapeutic use
[2] = Pharmacokinetic parameters after nasal administration to sheep; conditions: for Vd: Apparent Volume of Distribution; for AUC at 5 h: Area Under Curve; for half-life: T1/2, nasal 0.15 mg/kg with 0.5% chitosan
Experimental: (§1) The chitosan concentration was 0.5%. The solution was administered into the sheep nostril using a simple spray pump device followed by serial blood sampling. […] Control experiments were conducted using i.v. dosage of the glucuronide.
(§2) Blood samples (10 ml) were taken at the following times.
(§3) The area under the curve (AUC) was calculated over 0-300 minutes using the linear trapezoidal method. […] Clearance was calculated by dividing the dose by the AUC, and the volume of distribution was calculated by dividing the clearance by the elimination rate constant. The bioavailability was calculated by dividing the mean AUC for nasal administration by the normalised mean AUC after intravenous administration.

in vivo = conditions: sheep
Experimental: as §1, §2
Plasma was separated by centrifugation soon after sampling and the plasma samples (approximately 5 ml) were stored at -80° C. prior to analysis.
Biomed. Appl. 230, 427. […] The limit of quantification of the method is 1 ng/ml for a 0.5 ml plasma sample and the assay is linear over the range of 1 to 1200 ng/ml drug concentration.

[3] = Pharmacokinetic parameters after intravenous administration to sheep; conditions: for Vd: Apparent Volume of Distibution; for AUC at 5 h: Area Under Curve; for half-life: T1/2, i.v. 0.015 mg/kg
Experimental: as §1, §2, §3

[4] = subcutaneous injection, rat; cited from earlier work
[5] = intracerebroventricular, mice; cited from earlier work
[6] = nasal 0.15 mg/kg with 0.5% chitosan, individual sheep IF, JF, KF, 0.15 mg/kg
[7] = 0.15 mg/kg, morphine-6-glucuronide concentration (plasma)
[8] = iv, 0.015 mg/kg, morphine-6-glucuronide concentration (plasma)
[9] = i.v. 0.015 mg/kg, individual sheep NF, OF, PF

CN1CC[C@]23c4c5ccc(O)c4O[C@H]2[C@@H](O[C@@H]2O[C@H](C(=O)O)[C@@H](O)[C@H](O)[C@H]2O)C=C[C@H]3[C@H]1C5 [morphine-6-glucuronide]
biological half-life compared with morphine [1]: may also have a longer biological half-life
unwanted side effects [1]: less likely to have the unwanted side effects
bioavailability ([2]; nasal 0.15 mg/kg with 0.5% chitosan, vs normalised mean i.v. AUC, individual sheep IF, JF, KF, 0.15 mg/kg): 37.3% and 26.6%
Area Under Curve ([2]; nasal 0.15 mg/kg with 0.5% chitosan, 0-300 min, individual sheep IF, JF, KF, 0.15 mg/kg, 300 min): 10631 ng·min/mL and 7581 ng·min/mL
Apparent Volume of Distribution ([2]; nasal 0.15 mg/kg with 0.5% chitosan, corrected for bioavailable dose, individual sheep IF, JF, KF, 0.15 mg/kg): 0.31 lkg^-1
clearance ([2]; nasal 0.15 mg/kg with 0.5% chitosan, corrected for bioavailable dose, mean of 3 sheep): 5.3 mL/min/kg
Cmax [2, 6]: 165 ng/mL and 110 ng/mL
T1/2 [2, 6]: 41 min and 42 min
Tmax [2, 6]: 10 min
clearance ([2]; sheep, plasma, 0.15 mg/kg): 5.3 mL/min/kg
Vd ([2]; sheep, plasma, 0.15 mg/kg, nasal 0.15 mg/kg with 0.5% chitosan, corrected for bioavailable dose, individual sheep IF, JF, KF): 0.37 L/kg
Vd ([2]; sheep, plasma, 0.15 mg/kg, nasal 0.15 mg/kg with 0.5% chitosan, corrected for bioavailable dose, mean of 3 sheep): 0.33 L/kg
AUC at 5 h ([2]; sheep, plasma, 0.15 mg/kg, nasal 0.15 mg/kg with 0.5% chitosan, 0-300 min, individual sheep IF, JF, KF): 156 ng·h/mL
AUC at 5 h ([2]; sheep, plasma, 0.15 mg/kg, nasal 0.15 mg/kg with 0.5% chitosan, 0-300 min, mean of 3 sheep): 153 ng·h/mL
bioavailability ([2]; sheep, plasma, 0.15 mg/kg, Bioavailability, nasal 0.15 mg/kg with 0.5% chitosan, vs normalised mean i.v. AUC, individual sheep IF, JF, KF): 32.9%
Cmax ([2]; sheep, plasma, 0.15 mg/kg, Cmax, nasal 0.15 mg/kg with 0.5% chitosan, individual sheep IF, JF, KF): 121 ng/mL
Cmax ([2]; sheep, plasma, 0.15 mg/kg, Cmax, nasal 0.15 mg/kg with 0.5% chitosan, mean of 3 sheep): 132 ng/mL
half-life ([2]; sheep, plasma, 0.15 mg/kg, individual sheep IF, JF, KF): 51 min
half-life ([2]; sheep, plasma, 0.15 mg/kg, mean of 3 sheep): 45 min
Tmax ([2]; sheep, plasma, 0.15 mg/kg, Tmax, nasal 0.15 mg/kg with 0.5% chitosan, individual sheep IF, JF, KF): 15 min
Tmax ([2]; sheep, plasma, 0.15 mg/kg, Tmax, nasal 0.15 mg/kg with 0.5% chitosan, mean of 3 sheep): 13 min
bioavailability ([2]; sheep, plasma, 0.15 mg/kg, mean nasal bioavailability, nasal 0.15 mg/kg with 0.5% chitosan, vs i.v. AUC normalised to 0.15 mg/kg, mean, n=3): 32.3%
concentration at 10 min (in vivo; [7]): 89.1 ng/mL
concentration at 0.25 h (in vivo; [7]): 121 ng/mL
concentration at 20 min (in vivo; [7]): 102 ng/mL
concentration at 0.5 h (in vivo; [7]): 107 ng/mL
concentration at 0.75 h (in vivo; [7]): 108 ng/mL
concentration at 1 h (in vivo; [7]): 66.7 ng/mL
concentration at 1.5 h (in vivo; [7]): 41.1 ng/mL
concentration at 2 h (in vivo; [7]): 21.9 ng/mL
concentration at 3 h (in vivo; [7]): 10.2 ng/mL
concentration at 6 h (in vivo; [7]): < 1 ng/mL
morphine-6-glucuronide concentration (plasma) (in vivo; iv, 0.015 mg/kg, 2.5 h): 3.5 ng/mL
concentration at 2 min (in vivo; [8]): 43.8 ng/mL
concentration at 5 min (in vivo; [8]): 40.3 ng/mL
concentration at 10 min (in vivo; [8]): 36.1 ng/mL
concentration at 0.25 h (in vivo; [8]): 28.6 ng/mL
concentration at 20 min (in vivo; [8]): 23.2 ng/mL
concentration at 0.5 h (in vivo; [8]): 22.5 ng/mL
concentration at 1.5 h (in vivo; [8]): 9.4 ng/mL
concentration at 3 h (in vivo; [8]): 2 ng/mL
concentration at 4 h (in vivo; [8]): < 1 ng/mL
concentration at 5 h (in vivo; [8]): < 1 ng/mL
concentration at 6 h (in vivo; [8]): < 1 ng/mL
Area Under Curve ([3]; i.v. 0.015 mg/kg, 0-300 min, individual sheep NF, OF, PF, 300 min): 3819 ng·min/mL and 2560 ng·min/mL
Apparent Volume of Distibution [3, 9]: 0.30 lkg^-1 and 0.35 lkg^-1
Cmax [3, 9]: 55 ng/mL and 50 ng/mL
T1/2 [3, 9]: 53 min and 42 min
Tmax [3, 9]: 2 min and 5 min
clearance [3, 9]: 3.9 mL/min/kg and 5.9 mL/min/kg
Vd ([3]; sheep, plasma, iv, 0.015 mg/kg, i.v. 0.015 mg/kg, individual sheep NF, OF, PF): 0.58 L/kg
Vd ([3]; sheep, plasma, iv, 0.015 mg/kg, i.v. 0.015 mg/kg, mean of 3 sheep): 0.41 L/kg
AUC at 5 h ([3]; sheep, plasma, iv, 0.015 mg/kg, i.v. 0.015 mg/kg, 0-300 min, individual sheep NF, OF, PF): 36.1 ng·h/mL
AUC at 5 h ([3]; sheep, plasma, iv, 0.015 mg/kg, i.v. 0.015 mg/kg, 0-300 min, mean of 3 sheep): 47.5 ng·h/mL
clearance ([3]; sheep, plasma, iv, 0.015 mg/kg, Clearance, i.v. 0.015 mg/kg, individual sheep NF, OF, PF): 6.9 mL/min/kg
clearance ([3]; sheep, plasma, iv, 0.015 mg/kg, Clearance, i.v. 0.015 mg/kg, mean of 3 sheep): 5.6 mL/min/kg
Cmax ([3]; sheep, plasma, iv, 0.015 mg/kg, Cmax, i.v. 0.015 mg/kg, individual sheep NF, OF, PF): 44 ng/mL
Cmax ([3]; sheep, plasma, iv, 0.015 mg/kg, Cmax, i.v. 0.015 mg/kg, mean of 3 sheep): 50 ng/mL
half-life ([3]; sheep, plasma, iv, 0.015 mg/kg, individual sheep NF, OF, PF): 58 min
half-life ([3]; sheep, plasma, iv, 0.015 mg/kg, mean of 3 sheep): 51 min
Tmax ([3]; sheep, plasma, iv, 0.015 mg/kg, Tmax, i.v. 0.015 mg/kg, mean of 3 sheep): 3 min

CN1CC[C@]23c4c5ccc(O)c4O[C@H]2[C@@H](OS(=O)(=O)O)C=C[C@H]3[C@H]1C5 [morphine-6-sulphate]
unwanted side effects [1]: less likely to have the unwanted side effects
antinociceptive activity [4]: potent antinociceptive activity
analgesic potency compared with morphine [5]: more potent analgesic than morphine
